Data published in patent US8507411B2, “Neoglycorandomization and digitoxin analogs” (priority 2004, dated 2013).
Where two headings read alike, the source gives them in different places.

Assays:
Du145 = experiment: High-throughput calcein AM cytotoxicity assay, Du145; assay type: cell-based, human
Description: (§1) Standard errors are depicted with error bars.

MCF7 = experiment: High-throughput calcein AM cytotoxicity assay, MCF7; assay type: cell-based, human; settings: read-out: IC50, MCF7
Description: as §1

HCT-116 = experiment: High-throughput calcein AM cytotoxicity assay, HCT-116; assay type: cell-based, human; settings: read-out: IC50, HCT-116
Description: as §1

NCI-H460 = experiment: High-throughput calcein AM cytotoxicity assay, NCI-H460; assay type: cell-based, human; settings: read-out: IC50, NCI-H460
Description: as §1

A549 = experiment: High-throughput calcein AM cytotoxicity assay, A549; assay type: cell-based, human; settings: read-out: IC50, A549
Description: as §1

NCI/ADR-RES = experiment: cells; assay type: cell-based, human
Summary of the method: (§2)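 Viability read-out: esterase conversion of calcein AM to fluorescent calcein in live cells (ex 485, em 535 nm), 30 min at 37 °C after 72 h compound exposure. Human lines grown in RPMI 1640/10% FBS; NmuMG in DMEM/10% FBS with 10 μg/ml insulin. IC50s fit with variable Hill slope.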

SF-268 = experiment: cells; assay type: cell-based, human
Summary of the method: as §2

SK-OV-3 = experiment: cells; assay type: cell-based, human
Summary of the method: as §2

NmuMG = experiment: cells; assay type: cell-based, mouse
Summary of the method: as §2

[1] = tested on: nine human cancer cell lines and a mouse mammary normal epithelial control line; experiment: High-throughput calcein AM cytotoxicity assay, whole cell line panel; settings: for cytotoxicity (in words): cell line panel, 72 h, calcein AM
Description: In the assay, live cells were distinguished by the presence of a ubiquitous intracellular enzymatic activity which converts the non-fluorescent cell-permeable molecule calcein AM to the intensely fluorescent molecule calcein, which is retained within live cells. The IC50 value for each library member represents at least six replicates of dose-response experiments conducted over five concentrations using two-fold dilutions. […] Standard errors are depicted with error bars. Numerical values and corresponding error values can be found in Table 4. Du145: […]; MCF7: human breast carcinoma; HCT-116: human colon carcinoma, Hep3B: human liver carcinoma; SF-268: human CNS glioblastoma; SK-OV-3: human ovary adenocarcinoma; NCI-H460: human lung carcinoma; A549: human lung adenocarcinoma; NCI/ADR-RES: human breast carcinoma; NmuMG: mouse mammary normal epithelial.
Cell Culture: All cell lines except NmuMG were maintained in RPMI 1640 medium from InVitrogen (Cat No. 11875-085) supplemented with 10% w/v fetal bovine serum (FBS) from ICN (Cat No. 2916154) and penicillin-streptomycin (PS) (100 U/mL and 100 μg/mL) from InVitrogen (Cat No. 15140-122). NmuMG cells were maintained in DMEM medium from InVitrogen (Cat No. 11965-084) supplemented with 10% w/v fetal bovine serum (FBS) from ICN (Cat No. 2916154), 10 μg/ml insulin (InVitrogen Cat No 12585-014), and penicillin-streptomycin (PS) (100 U/mL and 100 μg/mL) from InVitrogen (Cat No. 15140-122). Cells were harvested by trypsinization using 0.25% w/v trypsin and 0.1% w/v EDTA from InVitrogen (Cat No. 15-050-057) and then counted in a hemocytometer in duplicate with better than 10% agreement in field counts. Cells were plated at a cell density of 10,000-15,000 cells/well of each Corning Costar 96-well black tissue culture treated microtiter plate (Fisher Cat No. 07-200-627). Cells were grown for 1 h at 37° C., with 5% CO2 in a humidified incubator to allow cell attachment to occur before compound addition.
Library Member Handling and Preparation for Cytotoxicity Assays: Library members were stored at −20° C. under dessicating conditions before the assay. Library member stocks (100×) were prepared in Corning Costar polypropylene 96-well V-bottom polypropylene microtiter plates (Fisher Cat No. 07-200-695). Five serial 1:2 dilutions were made with anhydrous DMSO at 100× the final concentration used in the assay.
Library Member Addition: The library member-containing plates were diluted 1:10 with complete cell culture media. The 10× stocks (10 μL) were added to the attached cells using a Biomek FX liquid handler (Beckman-Coulter). Library member stocks (10 μL) were added to 90 μL of cells in each plate to insure full mixing of stocks with culture media using a Beckman FX liquid handler with 96-well head.
Determination of Cytotoxicity: Cells were incubated with the library members for 72 h before fluorescence reading. Test plates were removed from the incubator and washed 1× in sterile PBS to remove serum containing calcium esterases. Calcein AM reagent (30 μL, […]) was added and the cells were incubated for 30 min at 37° C. Plates were read for emission using a fluorescein filter (excitation 485 nm, emission 535 nm).
IC50 Calculation: For each library member, at least six dose response experiments were conducted. […] To calculate IC50, percent inhibitions were plotted as a function of log [concentration] and then fit to a four-parameter logistic model that allowed for a variable Hill slope using XLfit 4.1.
Cytotoxicity Assays. All cell lines except NmuMG were maintained in RPMI 1640 medium supplemented with 10% w/v fetal bovine serum (FBS) and penicillin-streptomycin (PS) (100 U/mL and 100 μg/mL).

Hep3B = experiment: High-throughput calcein AM cytotoxicity assay, Hep3B; assay type: cell-based, human
Description: as §1

Na+/K+-ATPase [2] = target: T1, Na+/K+-ATPase (Homo sapiens, UniProt P05023); experiment: Non-radioactive rubidium ion uptake assay, HEK-293 cells; assay type: cell-based; settings: read-out: Na+/K+-ATPase Inhibition IC50
T1 construct: endogenous in cells; host or cells: HEK-293
Description: (§3) Na/K-ATPase Assays. Inhibition of Na^+/K^+-ATPase on HEK-293 cells and CHO-K1 cells by the library hits was determined by Aurora Biomed, Inc. using a high-throughput non-radioactive rubidium ion uptake assay. Experiments were conducted in duplicate using three different concentrations. Within each experiment, percent inhibition values at the three concentrations were expressed as the percent reduction of the maximum absorption signal observed for a 0 nM control. IC50 values were determined using the following formula: IC50=[(50−low %)/(high %−low %)]×(high conc.−low conc.)+low conc.
(§4) To assess how these structural modifications impact the ability of library members to inhibit Na^+/K^+-ATPases, a fundamental activity of cardiac glycosides (Paula, S., et al., (2005) Biochemistry 44, 498-510), library hits 5β, 15β, 23β, 27β, 33β, 40β, and digitoxin (1) were submitted to a non-radioactive rubidium uptake assay to gauge Na^+/K^+-ATPase inhibition in both […] human embryonic kidney cells and CHO-K1 hamster ovary cells (Gill, S. et al., (2004) ASSAY and Drug Development Technologies 2, 535-542).

Na+/K+-ATPase [3] = target: Na+/K+-ATPase (Cricetulus griseus, UniProt A0A8C2N4Z0); experiment: Non-radioactive rubidium ion uptake assay, CHO-K1 cells; assay type: cell-based, hamster; settings: read-out: Na+/K+-ATPase Inhibition IC50
Description: as §3, §4

[4] = Du145 cells, read-out: IC50, Du145
[5] = read-out: IC50, NCI/ADR-RES, NCI/ADR-RES cells
[6] = read-out: IC50, SF-268, SF-268 cells
[7] = read-out: IC50, SK-OV-3, SK-OV-3 cells
[8] = Hep 3B cells, read-out: IC50, Hep 3B
[9] = NCI/ADR-RES cells, read-out: IC50, NCI/ADR-RES
[10] = SF-268 cells, read-out: IC50, SF-268
[11] = SK-OV-3 cells, read-out: IC50, SK-OV-3
[12] = NmuMG mouse mammary normal epithelial control line; read-out: IC50, NmuMG
[13] = Mus musculus, read-out: IC50, NmuMG

Compound	IC50 (Du145; [4]) [nM]	IC50 (MCF7; MCF7 cells) [nM]	IC50 (HCT-116; HCT-116 cells) [nM]	IC50 (NCI-H460; NCI-H460 cells) [nM]	IC50 (A549; A549 cells) [nM]	IC50 (Hep3B; [8]) [nM]	IC50 (NCI/ADR-RES; [9]) [nM]	IC50 (SF-268; [10]) [nM]	IC50 (SK-OV-3; [11]) [nM]	IC50 (NmuMG; [12]) [nM]	cytotoxicity (in words) [1]	also measured
CONC1CC[C@]2(C)C3CC[C@]4(C)[C@@H](C5=CC(=O)OC5)CC[C@]4(O)C3CC[C@@H]2C1 (stereo partly drawn) [3α, S—C(3) aglycon]	2900	13000	9000	2400	8300	–	–	–	–	–	–	IC50 (NCI/ADR-RES; [5]): 5100 nM; IC50 (SF-268; [6]): 3500 nM; IC50 (SK-OV-3; [7]): 3000 nM; IC50 (NmuMG; read-out: IC50, NmuMG; NmuMG mouse mammary normal epithelial control line): > 25000 nM; IC50 ([1]; Homo sapiens): > 25000 nM
CON(C1CCC2(C)C(CCC3C2CCC2(C)C(C4=CC(=O)OC4)CCC32O)C1)C1OC(COC2OC(CO)C(O)C(O)C2O)C(O)C(O)C1O (stereo not drawn) [35β, melibioside]	27000	> 25000	> 25000	29000	> 25000	26000	16000	> 25000	15000	> 25000	–	IC50 ([1]; all cell lines): > 25000 nM
CON(C1CCC2(C)C(CCC3C2CCC2(C)C(C4=CC(=O)OC4)CCC32O)C1)C1OCC(O)C(O)C1O [15β, D-lyxoside]	–	–	–	–	–	–	–	–	–	–	significantly more potent than digitoxin against some cell lines	IC50 (Du145; Homo sapiens, DU-145, Du145 cells, read-out: IC50, Du145): 70 nM; IC50 (MCF7; Homo sapiens, MCF7, MCF7 cells): 230 nM; IC50 (HCT-116; Homo sapiens, HCT-116, HCT-116 cells): 170 nM; IC50 (Hep3B; Homo sapiens, Hep3B, Hep 3B cells, read-out: IC50, Hep 3B): 90 nM; IC50 (NCI-H460; Homo sapiens, NCI-H460, NCI-H460 cells): 90 nM; IC50 (A549; Homo sapiens, A549, A549 cells): 140 nM; IC50 (NCI/ADR-RES; Homo sapiens, NCI/ADR-RES, read-out: IC50, NCI/ADR-RES, NCI/ADR-RES cells): 75 nM; IC50 (SF-268; Homo sapiens, SF-268, read-out: IC50, SF-268, SF-268 cells): 90 nM; IC50 (SK-OV-3; Homo sapiens, SK-OV-3, read-out: IC50, SK-OV-3, SK-OV-3 cells): 160 nM; IC50 (NmuMG; [13]): 69 nM; IC50 (Na+/K+-ATPase [2]): > 300000 nM
CON([C@H]1CC[C@@]2(C)[C@H](CC[C@@H]3[C@@H]2CC[C@]2(C)[C@@H](C4=CC(=O)OC4)CC[C@]32O)C1)[C@H]1OC[C@H](O)[C@H](O)[C@H]1O [32β, L-arabinoside]	1100	2200	300	720	1700	1200	650	1000	3000	400	relatively inactive	–
CON(C1CCC2(C)C(CCC3C2CCC2(C)C(C4=CC(=O)OC4)CCC32O)C1)C1OC(CO)C(O)C(O)C1O [40β, D-taloside]	–	1400	1900	800	410	–	1900	1300	490	480	–	IC50 (Du145; Du145, 72 h, calcein AM, read-out: IC50): 200 nM; IC50 (Hep3B; Hep3B, 72 h, calcein AM, read-out: IC50): 180 nM; IC50 (Na+/K+-ATPase [2]): > 200000 nM; IC50 (Na+/K+-ATPase [3]): 180000 nM
6-deoxy-6-azido-D-mannoside [41β]	2000	3300	6000	2700	1700	1800	840	2500	2100	> 25000	not active	–
CON([C@H]1CC[C@@]2(C)[C@H](CC[C@@H]3[C@@H]2CC[C@]2(C)[C@@H](C4=CC(=O)OC4)CC[C@]32O)C1)[C@@H]1O[C@H](CO)[C@@H](O)[C@H](O)[C@H]1O [4β, D-glucoside]	8200	10000	3800	3500	2900	2400	1900	4500	6000	3100	relatively inactive	–
CONC1CC[C@]2(C)C3CC[C@]4(C)[C@@H](C5=CC(=O)OC5)CC[C@]4(O)C3CC[C@@H]2C1 (stereo partly drawn) [3β, R—C(3)aglycon]	1300	1800	1200	700	1200	1400	–	–	–	–	–	IC50 (NCI/ADR-RES; [5]): 710 nM; IC50 (SF-268; [6]): 1000 nM; IC50 (SK-OV-3; [7]): 900 nM; IC50 (NmuMG; [13]): > 25000 nM; IC50 ([1]; Homo sapiens, read-out: average IC50): ~1100 nM
CON([C@H]1CC[C@@]2(C)[C@H](CC[C@@H]3[C@@H]2CC[C@]2(C)[C@@H](C4=CC(=O)OC4)CC[C@]32O)C1)[C@@H]1O[C@H](CO)[C@@H](O)[C@@H](O)[C@H]1O [18β, D-alloside]	2200	6800	6000	3200	2000	3300	800	3500	6400	3100	–	–
CON([C@H]1CC[C@@]2(C)[C@H](CC[C@@H]3[C@@H]2CC[C@]2(C)[C@@H](C4=CC(=O)OC4)CC[C@]32O)C1)[C@H]1O[C@@H](C)[C@@H](O)[C@@H](O)[C@@H]1O [7β, L-fucoside]	700	1300	1200	600	300	350	250	900	500	> 25000	–	–
